Source: PMC4290037, “Purification and Characterization of Glucose-6-Phosphate Dehydrogenase from Camel Liver” (Enzyme Research, 2014)

Biological target: T1, Glucose-6-phosphate dehydrogenase (camel liver G6PD) (Camelus dromedarius, UniProt G1EHI3)
T1 construct: native enzyme purified from camel liver (subunit 64 kDa, native 194 kDa)
Test: enzyme inhibition kinetics of purified enzyme (Lineweaver-Burk, Hill plot, slope replot)
Format: biochemical

T1 sequence (G1EHI3 entry or part of it): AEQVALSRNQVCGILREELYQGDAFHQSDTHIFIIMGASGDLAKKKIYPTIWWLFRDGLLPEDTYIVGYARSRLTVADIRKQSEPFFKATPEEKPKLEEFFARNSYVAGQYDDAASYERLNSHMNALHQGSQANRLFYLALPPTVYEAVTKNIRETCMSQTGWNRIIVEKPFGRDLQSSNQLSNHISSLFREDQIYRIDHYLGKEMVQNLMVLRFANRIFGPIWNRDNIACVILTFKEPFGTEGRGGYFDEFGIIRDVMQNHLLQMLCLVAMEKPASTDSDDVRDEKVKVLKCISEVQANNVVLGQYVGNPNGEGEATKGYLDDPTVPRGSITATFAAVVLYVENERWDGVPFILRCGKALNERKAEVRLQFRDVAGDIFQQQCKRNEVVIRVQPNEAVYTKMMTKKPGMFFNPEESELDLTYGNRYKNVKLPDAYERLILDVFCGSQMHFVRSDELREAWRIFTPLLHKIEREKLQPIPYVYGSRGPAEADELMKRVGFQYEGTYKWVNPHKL

Ki: 35 µM
SMILES: NC(=O)C1=CN([C@@H]2O[C@H](COP(=O)(O)OP(=O)(O)OC[C@H]3O[C@@H](n4cnc5c(N)ncnc54)[C@H](OP(=O)(O)O)[C@@H]3O)[C@@H](O)[C@H]2O)C=CC1 [NADPH]
